From patent US20030109582A1, “Methods and compositions for stimulating secretions from paneth cells” (priority 2001, published 2003) come the findings set out here.

One experiment has as its system Crohn's disease patients. In words: L-isoleucine administration to Crohn's disease patients (CDAI, abdominal symptoms). The experiment is classed as in vivo, human. The settings on record: Four grams/day oral, 4 weeks. The procedure:
L-isoleucine was administered to nine volunteer Crohn's disease patients with mild abdominal symptoms. Four grams/day of powdered L-isoleucine divided into two doses was orally administered for 4 weeks. The CDAI (Crohn's disease activity index—Best W, Beckel J, Singleton J, Kern F J, Development of a Crohn's Disease Activity Index: National Cooperative Crohn's Disease Study. Gastroenterology 1976; 70:439-44) was calculated at the beginning and following the fourth week of the L-isoleucine administration period. All medication regiments were fixed throughout the study period.

Experiment [1] deals with Human Paneth cells (isolated intact human crypts from ileum); secretions tested on Salmonella typhimurium phoP-. In words: human Paneth cell secretion assay (bactericidal activity of crypt secretions). The settings on record: for % Bacterial Cell Killing: S. typhimurium. The experiment is classed as cell-based. The source says: An assay was developed utilizing Human Paneth cells, obtained from biopsy material. Substances were screened in vitro, by exposing the isolated human tissue material briefly, and assessing the release of antibiotic activity.
A human Paneth cell secretion assay was developed using isolated intact human crypts from ileum obtained after bowel surgery, following published techniques. About 700 isolated crypts obtained by disruption with EDTA, as estimated using a hemocytometer, were transferred into microfuge tubes. Crypts were then incubated in minimal essential media containing non-essential amino acids, with or without various substances (such as isoleucine) in a total volume of 0.5 ml for 30 min or 1 hour at 37° C. After incubation the tissue suspension was spum, and the supernatants collected 10 microliter aliquots were then mixed with either 500 or 1000 colony forming units (cfu) of Salmonella typhimurium phoP- and incubated for 1 hour at 37° C. Surviving bacteria were quantitated by plating on nutrient agar. Bactericidal assays were conducted in triplicate. Data were expressed as the percent bacteria killed under experimental conditions relative to those recovered from controls.

For the next experiment, the system named is fecal Lactobacilli. The experiment is described as follows: population density of viable Lactobacilli in stools of individuals with Crohn's disease. Format: in vivo, human. The settings on record: after 1 week of L-isoleucine administration (dosed as in Example 2) added to low-residual formula diet; 9 hospitalized Crohn's disease individuals. On the procedure: The population density of viable Lactobacilli in the stools of a group of 9 hospitalized individuals with Crohn's disease was measured before and after a course of L-isoleucine administration. Subjects in this group had been supported nutritionally exclusively by total parenteral nutrition (TPN) for more than one month. One week after a low-residual formula diet was introduced, L-isoleucine was added to the diet (dosed as in Example 2) during the fmal week of hospitalization. Yogurt and other fermented products were restricted as were antibiotics.

With `CC[C@H](C)[C@H](N)C(=O)O` [isoleucine, L(+)isoleucine], in the experiment with Crohn's disease patients (Crohn's disease patients), the frequency of diarrhea entry is “gradually decreased”. Moreover, the stool consistency entry in the experiment with Crohn's disease patients (Crohn's disease patients) is reported as “improved”. For the same compound, in the experiment on Crohn's disease patients (two doses, nine Crohn's disease patients, mean CDAI at beginning 120), the “mean CDAI at fourth week” value was found to be 90. Further, in experiment [1] (crypts exposed to 250 microgram/ml for 1 hour), the “Bactericidal activity in secretions against S. typhimurium” value is recorded as “detected”. Further, the “% Bacterial Cell Killing” value in experiment [1] (crypts exposed to L(+)isoleucine 250 microgram/ml for 1 hour, relative to controls) came to 63.7%; in experiment [1] (isoleucine 5 μg/ml, 30 minutes) it was 4.1%; in experiment [1] (isoleucine 50 μg/ml, 30 minutes) it was 22.5%; in experiment [1] (isoleucine 500 μg/ml, 30 minutes), 51.7%. In experiment [1] (crypts exposed to L(+)isoleucine 250 microgram/ml for 1 hour, supernatant incubated with S. typhimurium 1 hour), the “Surviving Bacteria” value is on record as 140 ± 23. Further, in experiment [1] (human Paneth cells, Salmonella typhimurium killing), the “isoleucine-induced secretion effect, dose dependence” value was “dose dependent”. Besides, the “mean concentration of fecal Lactobacilli” value in the experiment on fecal Lactobacilli is recorded as “significantly increased”.
